From article PMC12412453 (Toxicology, 2021)
“And” between values parts separate entries of the source, which are not always exact repeats. Identical values can stand only once. Like-named read-outs stand apart in the source and are kept apart here.

Key:
cynomolgus monkeys = settings: dosed cynomolgus monkeys; ref Thorgeirsson et al., 1995; cited from earlier work
[1] = tested on: primary human hepatocytes (PHHs); settings: cited from earlier work
[2] = reported findings; ref References column of Table 1; cited from earlier work
[3] = tested on: primary macaque hepatocytes (PMHs); assay: CometChip assay; settings: for BMDU/BMDL / DNA damage (ratio of %DNA in tail at highest concentration to vehicle control) / LEC (lowest effective concentration) / BMDL50–BMDU50 / Potency ranking: PMH; for BMD50: PMH CometChip data, PROAST exponential model; for DNA damage (ratio of %DNA in tail at highest concentration to vehicle control) / LEC (lowest effective concentration): 24-h treatment; for LEC (lowest effective concentration): lowest concentration positive in comet assay; for BMDL50–BMDU50: 90 % confidence interval of BMD50; for Potency ranking: rank by BMD50 among nine positive compounds; for fold increase in % tail DNA (DNA damage) compared to the vehicle control: PMHs, highest acceptable concentration, range given for four compounds together
[4] = tested on: primary human hepatocytes (PHHs); settings: cited from earlier work; remark: listed apart in the source
[5] = cited from earlier work
[6] = reported findings; ref References column of Table 1; cited from earlier work; remark: listed apart in the source
[7] = tested on: primary macaque hepatocytes (PMHs); assay: Cytotoxicity by ATP assay; settings: for Max. con.: maximum concentration
[8] = Cytotoxicity by ATP assay; settings: rhesus macaque, primary macaque hepatocytes (PMHs)
[9] = tested on: primary macaque hepatocytes (PMHs); settings: rhesus macaque, 24 h
[10] = tested on: primary macaque hepatocytes (PMHs); settings: rhesus macaque, 24 h; remark: listed apart in the source
[11] = PHH, ATP assay, 24-h treatment, ref Seo et al., 2020
[12] = PHH, maximum concentration, ref Seo et al., 2020
[13] = PHH CometChip data reanalyzed using PROAST, ref Seo et al., 2020
[14] = PHH, 90 % confidence interval of BMD50, ref Seo et al., 2020
[15] = PHH, rank by BMD50 among nine positive compounds, ref Seo et al., 2020
[16] = PHH, lowest concentration positive in comet assay, ref Seo et al., 2020
[17] = reported findings, ref References column of Table 1

| Structure (SMILES) | Cytotoxicity [1, 11] | Max. con. [1, 12] | Carcinogenicity [2] | BMD50 [4, 13] [µM] | BMDL50–BMDU50 [4, 14] [µM] | Potency ranking [4, 15] | DNA damage (ratio of %DNA in tail at highest concentration to vehicle control) ([4]; PHH, ref Seo et al., 2020) | Genotoxicity assay findings in vivo [5, 17] | Genotoxicity assay findings in vitro [6] | Max. con. ([7]; PMH, 24-h treatment) | Cytotoxicity ([7]; PMH, ATP assay, 24-h treatment) | further results |
| --- | --- | --- | --- | --- | --- | --- | --- | --- | --- | --- | --- | --- |
| Cn1c(N)nc2c3cccnc3ccc21 [IQ, 2-amino-3-methylimidazo-[4,5-f]-quinoline] |  |  |  |  |  |  |  |  |  |  |  | DNA adducts in several organs, particularly liver, kidney, and heart (cynomolgus monkeys): high levels of DNA adducts |
| [Cl][Cd][Cl] [CdCl2, cadmium chloride] | + (11–30 %) | 4 µM | (+) for lung, prostate, etc. | 0.9 | 0.5 to 1.6 | 2 | + (1.5 < ratio ≤ 2, and p < 0.05) | (+) for CA and MN, comet in liver | (+) for MN, CA, MLA, Hprt, comet | 4 µM | ++ (31–50 %) | Cytotoxicity ([1]; PHHs, 4 μM, ref Seo et al., 2020): 25%; BMDU/BMDL [3]: 2.3; BMD50 [3]: 0.37 µM and 0.4 µM; DNA damage (ratio of %DNA in tail at highest concentration to vehicle control) [3]: +++ (the ratio > 5); LEC (lowest effective concentration) [3]: 2 µM; BMDL50–BMDU50 [3]: 0.2 to 0.5 µM; Potency ranking [3]: 1; fold increase in % tail DNA (DNA damage) compared to the vehicle control [3]: 6.1–8.1 fold; LEC (lowest effective concentration) [4, 16]: 1 µM; BMDU/BMDL ([4]; PHH, ref Seo et al., 2020): 3.2; Cytotoxicity ([7]; PMHs, 4 μM, 24-h exposure): 43% |
| CCc1cc(C(N)=S)ccn1 [Ethionamide] | + (11–30 %) | 2000 µM | (−) in rats and mice |  |  |  | − (The ratio ≤ 1.5-fold and p ≥ 0.05) | (−) for comet |  | 2000 µM | + (11–30 %) |  |
| Oc1ccc(O)cc1 [HQ, hydroquinone] | ++ (31–50 %) | 200 µM | (+) for liver and kidney adenoma |  |  |  | − (The ratio ≤ 1.5-fold and p ≥ 0.05) | (+) for CA, MN; (−) for comet and TG in liver and stomach | (+) for MLA, MN, CA, comet | 200 µM | + (11–30 %) | cell viability ([1]; PHHs, 200 μM, range given for cisplatin and HQ together, ref Seo et al., 2020): 55–63%; viability at 24 h, 200 µM [8]: 78 to 81% |
| Cc1cnc2ccc3c(nc(N)n3C)c2n1 [8-MeIQx, 2-amino-3,8-dimethylimidazo[4,5-f]-quinoxaline] |  |  |  |  |  |  |  |  |  |  |  | DNA adducts in several organs, particularly liver, kidney, and heart (cynomolgus monkeys): high levels of DNA adducts |
| COS(C)(=O)=O [MMS, methyl methanesulfonate] |  |  |  |  |  |  |  |  |  |  |  | Max. con. [1]: 500 µM; BMDL50–BMDU50 [9]: 14.2 to 33.7 µM; BMDU/BMDL [9]: 2.4; LEC (lowest effective concentration) [9]: 125 µM; Potency ranking [9]: 6; BMD50 [4]: 1.0 µM; BMDL50–BMDU50 [4]: 0.5 to 1.9 µM; BMDU/BMDL [4]: 3.5; LEC (lowest effective concentration) [4]: 62.5 µM; Potency ranking [4]: 3; Genotoxicity assay findings in vivo ([5]; in vivo): (+) for CA, MN, UDS, Pig-a, TG, comet; Max. con. [10]: 500 µM |
| COc1cc(/C=C/C(=O)CC(=O)/C=C/c2ccc(O)c(OC)c2)ccc1O [Curcumin] | + (11–30 %) | 40 µM |  |  |  |  |  |  |  | 40 µM | + (11–30 %) |  |
| Oc1cccc(O)c1 [Resorcinol] | ++ (31–50 %) | 2000 µM | (−) in rats and mice |  |  |  | − (The ratio ≤ 1.5-fold and p ≥ 0.05) |  |  | 1000 µM | ++ (31–50 %) |  |
| Cc1ccc(N)cc1N [2,4-DAT, 2,4-diaminotoluene] | + (11–30 %) | 8000 µM |  | 880.6 | 489 to 1580 | 9 | ++ (2 < ratio ≤ 5) | (+) for UDS and comet; (+/−) for MN in BM | (+) for MLA, CA, MN, comet, and UDS; (−) for comet in HepaRG and Hprt | 8000 µM | + (11–30 %) | BMD50 fold higher in PMHs than in PHHs (lower in PHHs) ([3]; CometChip BMD50, PMH vs PHH): 3.2 fold; BMDU/BMDL [3]: 2.6; BMD50 [3]: 2831 µM; DNA damage (ratio of %DNA in tail at highest concentration to vehicle control) [3]: ++ (2 < ratio ≤ 5); LEC (lowest effective concentration) [3]: 8000 µM; BMDL50–BMDU50 [3]: 1790 to 4660 µM; Potency ranking [3]: 9; LEC (lowest effective concentration) [4, 16]: 1414 µM; BMDU/BMDL ([4]; PHH, ref Seo et al., 2020): 3.2 |
| Cn1c(N)nc2ncc(-c3ccccc3)cc21 [PhIP, 2-amino-1-me-thyl-6-phenylimidazo-[4,5-b]-pyridine] |  |  |  |  |  |  |  |  |  |  |  | DNA adducts in several organs, particularly liver, kidney, and heart (cynomolgus monkeys): high levels of DNA adducts |
| Nc1ccccc1C(=O)O [o-Anthranilic acid] | − (cytotoxicity of 0–10 %) | 5000 µM |  |  |  |  | − (The ratio ≤ 1.5-fold and p ≥ 0.05) | (−) for Pig-a, MN, CA, comet |  | 5000 µM | ++ (31–50 %) | DNA damage (ratio of %DNA in tail at highest concentration to vehicle control) [3]: − (The ratio ≤ 1.5-fold and p ≥ 0.05); cytotoxic effects (in words) ([7]; PMHs, ATP assay, 24-h exposure): cytotoxic effects over the same range of concentrations, but only in PMHs |
| Cc1c2ccccc2c(C)c2c1ccc1ccccc12 [DMBA, 7,12-dimethylbenzanthracene] | − (cytotoxicity of 0–10 %) | 250 µM | (+) for mammary liver, skin tumor, etc. | 15.1 | 8.5 to 25.8 | 6 | ++ (2 < ratio ≤ 5) | (+) for MN and Pig-a in blood, comet in liver, CA in BM, gene mutation | (+) for MLA, CA, MN, comet, and UDS | 500 µM | + (11–30 %) | BMD50 fold higher in PHHs than in PMHs (lower in PMHs) ([3]; CometChip BMD50, PHH vs PMH): 3.8 fold and 3.75 fold; BMDU/BMDL [3]: 2.4; BMD50 [3]: 4.0 µM; DNA damage (ratio of %DNA in tail at highest concentration to vehicle control) [3]: +++ (the ratio > 5); LEC (lowest effective concentration) [3]: 31.25 µM; BMDL50–BMDU50 [3]: 2.6 to 6.1 µM; Potency ranking [3]: 3; fold increase in % tail DNA (DNA damage) compared to the vehicle control [3]: 6.1–8.1 fold; LEC fold higher in PHHs than in PMHs ([3]; comet assay LEC, PHH vs PMH): 2 fold; LEC (lowest effective concentration) [4, 16]: 62.5 µM; BMDU/BMDL ([4]; PHH, ref Seo et al., 2020): 3.0; cytotoxic effects (in words) ([7]; PMHs, ATP assay, 24-h exposure): cytotoxic effects over the same range of concentrations, but only in PMHs |
| c1ccc2c(c1)cc1ccc3cccc4ccc2c1c34 [B[a]P, benzo[a]pyrene] | + (11–30 %) | 100 µM |  | 9.2 | 5.2 to 16.3 | 5 |  | (+) for comet, MN, Pig-a and gene mutations | (+) for MLA, CA, MN, Pig-a, comet, Hprt, and UDS |  | + (11–30 %) | Max. con. [10]: 100 µM |
| O=[N+]([O-])c1cc[n+]([O-])c2ccccc12 [4-NQO, 4-nitroquinoline 1-oxide] | + (11–30 %) | 5 µM |  | 0.3 | 0.1 to 0.6 | 1 |  |  | (+) for CA, MLA, Pig-a, comet | 7.5 µM | + (11–30 %) |  |
| COc1cc2c(c(OC)c1OC)-c1ccc(OC)c(=O)cc1[C@@H](NC(C)=O)CC2 [Colchicine] | + (11–30 %) |  |  |  |  |  |  |  |  |  | + (11–30 %) |  |
| CCCC(O)C(CC)CO (centres unmarked) [2-Ethyl-1,3-hexanediol] | + (11–30 %) | 10,000 μM | (−) in dermal studies |  |  |  | − (The ratio ≤ 1.5-fold and p ≥ 0.05) |  | (+) for CA + S9; (−) for MLA, Hprt, MN, and SCE | 10,000 μM | + (11–30 %) |  |
